We go through 39 molecules from patent US8642642B2, “Heterocyclic arylsulphones suitable for treating disorders that respond to modulation of the serotonin 5HT6 receptor” (Abbott Laboratories, priority 2006, dated 2014).

In this assay the target is T1, human 5-HT6 receptor (Homo sapiens, UniProt P50406).
T1 construct: expressed in transfected cells
The experiment in a line: Human 5-HT6 receptor binding assay (3H-LSD displacement). The settings on record: membranes from HEK-293 cells, 2 nM 3H-LSD. How it is done:
The substance to be tested was either dissolved in methanol/Chremophor® (BASF-AG) or in dimethyl sulfoxide and then diluted with water to the desired concentration.
The compounds were dissolved in a concentration of 10^−2 M or 10^−3 M in DMSO. Further dilutions were performed in incubation buffer.
The procedure for the binding assay was based on the method of Monsma et al. (1993) Mol Pharmacol 43: 320-327. The binding reaction was carried out in a total volume of 0.250 ml for 60 min at 37° C. Membranes from HEK-293 cells stably expressing the human 5-HT6 receptor were incubated with 2 nM ^3H-LSD in the presence or absence of various concentrations of test compound for 60 min at 37° C. Non-specific binding was defined with 100 μM Serotonin (5-HT). Assays were performed in duplicate. Bound and free radioligand was separated by filtration and bound radioactivity determined by liquid scintillation counting.
The specific ligand binding to the receptors was defined as the difference between the total binding and the nonspecific binding determined in the presence of an excess of unlabelled 5-HT. The results are expressed as a percent of control specific binding obtained in the presence of compound. The IC50 values (concentration causing a half-maximal inhibition of control specific binding) and Hill coefficients (nH) were determined by non-linear regression analysis of the competition curves using Hill equation curve fitting.
The inhibition constants (Ki) were calculated from the Cheng Prusoff equation (Ki=IC50/(1+(L/KD)), where L=concentration of radioligand in the assay, and KD=affinity of the radioligand for the receptor).

SMILES strings stand for the structures. Structures can show the parent of a compound that is named as a salt.

T1 sequence (P50406 whole entry): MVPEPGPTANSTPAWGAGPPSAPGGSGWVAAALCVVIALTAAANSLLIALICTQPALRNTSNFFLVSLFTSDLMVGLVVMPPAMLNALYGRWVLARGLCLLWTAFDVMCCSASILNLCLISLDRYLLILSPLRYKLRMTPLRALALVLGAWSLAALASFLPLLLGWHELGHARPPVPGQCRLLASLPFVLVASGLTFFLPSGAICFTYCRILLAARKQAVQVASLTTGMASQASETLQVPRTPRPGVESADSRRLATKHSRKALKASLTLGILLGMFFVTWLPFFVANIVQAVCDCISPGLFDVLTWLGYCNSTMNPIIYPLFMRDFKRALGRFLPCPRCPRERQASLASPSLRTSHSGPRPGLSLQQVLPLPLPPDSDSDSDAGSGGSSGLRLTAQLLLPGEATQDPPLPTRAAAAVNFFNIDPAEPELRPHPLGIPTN

As usually defined, the Ki is the equilibrium dissociation constant of an inhibitor or competing ligand from its target. A low value points to tighter binding. For `O=S(=O)(Nc1cccc(C2CNC2)c1)c1cc(C(F)(F)F)cc(C(F)(F)F)c1` [Example 13, N-(3-Azetidin-3-yl-phenyl)-3,5-bis-trifluoromethyl-benzenesulfonamide], the Ki was in the range of 10 to 50 nM.

`CSc1nccc(-c2ccc(S(=O)(=O)Nc3cccc(C4CNC4)c3)s2)n1` [Example 23, 5-(2-Methylsulfanyl-pyrimidin-4-yl)-thiophene-2-sulfonic acid (3-azetidin-3-yl-phenyl)-amide]: the Ki was in the range of 10 to 50 nM.

The molecule `CCCN1CC(c2ccc(NS(=O)(=O)c3cccc(C)c3)cc2)C1` [Example 50, 3-Methyl-N-[4-(1-propyl-azetidin-3-yl)-phenyl]-benzenesulfonamide] yielded a Ki of 50 to 150 nM.

On to `COc1ccc(OC)c(S(=O)(=O)Nc2cccc(C3CNC3)c2)c1` [Example 14, N-(3-Azetidin-3-yl-phenyl)-2,5-dimethoxy-benzenesulfonamide], for which the Ki was 1 to 10 nM.

Take `O=S(=O)(Nc1cccc(C2CNC2)c1)c1cc(Cl)cc(Cl)c1` [Example 18, N-(3-Azetidin-3-yl-phenyl)-3,5-dichloro-benzenesulfonamide]: the Ki was in the range of 1 to 10 nM.

In the case of `CN1CC[C@@H](c2cccc(NS(=O)(=O)c3cccc(C(F)(F)F)c3)c2)C1` [Example 77, N-[3-((S)-1-Methyl-pyrrolidin-3-yl)-phenyl]-3-trifluoromethyl-benzenesulfonamide hydrochloride], the Ki was 1 to 10 nM.

Turning to `CCCN1CC(c2ccc(NS(=O)(=O)c3cccc(Cl)c3Cl)cc2)C1` [Example 51, 2,3-Dichloro-N-[4-(1-propyl-azetidin-3-yl)-phenyl]-benzenesulfonamide], the Ki is 50 to 150 nM.

Molecule `CCCN1CC(c2ccc(NS(=O)(=O)c3cc(C(F)(F)F)cc(C(F)(F)F)c3)cc2)C1` [Example 42, N-[4-(1-Propyl-azetidin-3-yl)-phenyl]-3,5-bis-trifluoromethyl-benzenesulfonamide] returned a Ki of 50 to 150 nM.

In the case of `CCCN1CC(c2ccc(NS(=O)(=O)c3cccc(Cl)c3)cc2)C1` [Example 48, 3-Chloro-N-[4-(1-propyl-azetidin-3-yl)-phenyl]-benzenesulfonamide], the Ki was 10 to 50 nM.

`O=S(=O)(Nc1ccc([C@@H]2CCNC2)cc1)c1cccc(C(F)(F)F)c1` [Example 101, N—((S)-4-Pyrrolidin-3-yl-phenyl)-3-trifluoromethyl-benzenesulfonamide] displayed an inhibition constant (Ki) of 10 to 50 nM.

In turn, `CCCN1CC[C@@H](c2ccc(NS(=O)(=O)c3cccc(C#N)c3)cc2)C1` [Example 64, 3-Cyano-N-[4-((S)-1-propyl-pyrrolidin-3-yl)-phenyl]-benzenesulfonamide hydrochloride] yielded a Ki of 50 to 150 nM.

In turn, `O=S(=O)(Nc1cccc(C2CNC2)c1)c1cccc(C(F)(F)F)c1` [Example 31, N-(3-Azetidin-3-yl-phenyl)-3-trifluoromethyl-benzenesulfonamide] displayed a Ki of 1 to 10 nM.

Molecule `Cc1nc(-c2cccc(S(=O)(=O)Nc3cccc(C4CNC4)c3)c2)cs1` [Example 10, N-(3-Azetidin-3-yl-phenyl)-3-(2-methyl-thiazol-4-yl)-benzenesulfonamide] yielded a Ki of 1 to 10 nM.

`CCCN1CC[C@@H](c2ccc(NS(=O)(=O)c3cc(C(F)(F)F)ccc3F)cc2)C1` [Example 104, 2-Fluoro-N-[4-((S)-1-propyl-pyrrolidin-3-yl)-phenyl]-5-trifluoromethyl-benzenesulfonamide]: the Ki is 10 to 50 nM.

For the molecule `CCCN1CC(c2ccc(NS(=O)(=O)c3ccc(F)c(F)c3)cc2)C1` [Example 54, 3,4-Difluoro-N-[4-(1-propyl-azetidin-3-yl)-phenyl]-benzenesulfonamide], the Ki is 50 to 150 nM.

`O=S(=O)(Nc1cccc(C2CNC2)c1)c1cc(Cl)sc1Cl` [Example 16, 2,5-Dichloro-thiophene-3-sulfonic acid (3-azetidin-3-yl-phenyl)-amide] gave a Ki of 1 to 10 nM.

The molecule `CCCN1CC(c2ccc(NS(=O)(=O)c3cc(Cl)cc(Cl)c3)cc2)C1` [Example 49, 3,5-Dichloro-N-[4-(1-propyl-azetidin-3-yl)-phenyl]-benzenesulfonamide] gave a Ki of 10 to 50 nM.

For `CCCN1CC(c2ccc(NS(=O)(=O)c3cccc(F)c3)cc2)C1` [Example 45, 3-Fluoro-N-[4-(1-propyl-azetidin-3-yl)-phenyl]-benzenesulfonamide], the Ki was in the range of 10 to 50 nM.

`O=S(=O)(Nc1cccc(C2CNC2)c1)c1cccs1` [Example 12, Thiophene-2-sulfonic acid (3-azetidin-3-yl-phenyl)-amide] returned a Ki of 10 to 50 nM.

In turn, `CCCN1CC(c2ccc(NS(=O)(=O)c3ccc(F)c(Cl)c3)cc2)C1` [Example 44, 3-Chloro-4-fluoro-N-[4-(1-propyl-azetidin-3-yl)-phenyl]-benzenesulfonamide] registered an inhibitory constant (Ki) of 50 to 150 nM.

The molecule `CCCN1CC(c2ccc(NS(=O)(=O)c3cc(Cl)ccc3Cl)cc2)C1` [Example 40, 2,5-Dichloro-N-[4-(1-propyl-azetidin-3-yl)-phenyl]-benzenesulfonamide] gave a Ki of 50 to 150 nM.

As for `CCCN1CC[C@@H](c2ccc(NS(=O)(=O)c3cccc(OC(F)(F)F)c3)cc2)C1` [Example 1, 3-Trifluoromethoxy-N-[4-((S)-1-propyl-pyrrolidin-3-yl)-phenyl]-benzenesulfonamide and its hydrochloride], the Ki fell in the range of 10 to 50 nM.

Regarding `Cc1c(S(=O)(=O)Nc2cccc(C3CNC3)c2)sc2ccc(Cl)cc12` [Example 9, 5-Chloro-3-methyl-benzo[b]thiophene-2-sulfonic acid (3-azetidin-3-yl-phenyl)-amide], the Ki was in the range of 1 to 10 nM.

The molecule `O=S(=O)(Nc1cccc(C2CNC2)c1)c1cccc(F)c1` [Example 15, N-(3-Azetidin-3-yl-phenyl)-3-fluoro-benzenesulfonamide] had a Ki of 1 to 10 nM.

For `Cc1cccc(S(=O)(=O)Nc2cccc(C3CNC3)c2)c1` [Example 19, N-(3-Azetidin-3-yl-phenyl)-3-methyl-benzenesulfonamide], the Ki is 1 to 10 nM.

The molecule `O=S(=O)(Nc1cccc(C2CNC2)c1)c1cccc(OC(F)(F)F)c1` [Example 32, N-(3-Azetidin-3-yl-phenyl)-3-trifluoromethoxy-benzenesulfonamide] came in with a Ki of 1 to 10 nM.

Molecule `CCCN1CC(c2ccc(NS(=O)(=O)c3cc(Cl)sc3Cl)cc2)C1` [Example 46, 2,5-Dichloro-thiophene-3-sulfonic acid [4-(1-propyl-azetidin-3-yl)-phenyl]-amide] had a Ki of 50 to 150 nM.

As for `CCCN1CCC(c2cc(NS(=O)(=O)c3cccc(OC(F)(F)F)c3)ccc2OC)C1` (stereo not drawn) [Example 8, N-[4-Methoxy-3-(1-propyl-pyrrolidin-3-yl)-phenyl]-3-trifluoromethoxy-benzenesulfonamide], the Ki was 10 to 50 nM.

`O=S(=O)(Nc1cccc(C2CCCNC2)c1)c1cccc(OC(F)(F)F)c1` (stereo not drawn) [Example 63, N-(3-Piperidin-3-yl-phenyl)-3-trifluoromethoxy-benzenesulfonamide hydrochloride]: the Ki lay within 10 to 50 nM.

Regarding `N#Cc1cccc(S(=O)(=O)Nc2cccc(C3CNC3)c2)c1` [Example 24, N-(3-Azetidin-3-yl-phenyl)-3-cyano-benzenesulfonamide], the Ki was 50 to 150 nM.

The molecule `O=S(=O)(Nc1cccc(C2CNC2)c1)c1cccc(Cl)c1` [Example 17, N-(3-Azetidin-3-yl-phenyl)-3-chloro-benzenesulfonamide] displayed a Ki below 1 nM.

In turn, `Cc1c(S(=O)(=O)Nc2ccc(C3CNC3)cc2)sc2ccc(Cl)cc12` [Example 26, 5-Chloro-3-methyl-benzo[b]thiophene-2-sulfonic acid (4-azetidin-3-yl-phenyl)-amide] displayed a Ki of 1 to 10 nM.

`COc1ccc(Br)cc1S(=O)(=O)Nc1cccc(C2CNC2)c1` [Example 20, N-(3-Azetidin-3-yl-phenyl)-5-bromo-2-methoxy-benzenesulfonamide] gave a Ki below 1 nM.

The molecule `CCCN1CC[C@@H](c2ccc(NS(=O)(=O)c3cc(C(F)(F)F)ccc3OC)cc2)C1` [Example 91, 2-Methoxy-N-[4-((S)-1-propyl-pyrrolidin-3-yl)-phenyl]-5-trifluoromethyl-benzenesulfonamide] came in with a Ki of 10 to 50 nM.

Molecule `CCCN1CC(c2ccc(NS(=O)(=O)c3ccc(Cl)s3)cc2)C1` [Example 47, 5-Chloro-thiophene-2-sulfonic acid [4-(1-propyl-azetidin-3-yl)-phenyl]-amide] gave an inhibitory constant (Ki) of 10 to 50 nM.

For the molecule `O=S(=O)(Nc1cccc([C@@H]2CCNC2)c1)c1cccc(C(F)(F)F)c1` [Example 67, N-[3-((S)-pyrrolidin-3-yl)-phenyl]-3-trifluoromethyl-benzene sulfonamide], the Ki lay within 1 to 10 nM.

With `O=S(=O)(Nc1cccc(C2CNC2)c1)c1ccc(S(=O)(=O)c2ccccc2)s1` [Example 21, 5-Benzenesulfonyl-thiophene-2-sulfonic acid (3-azetidin-3-yl-phenyl)-amide], the Ki is 50 to 150 nM.

Molecule `O=S(=O)(Nc1cccc(C2CCNC2)c1)c1cccc(OC(F)(F)F)c1` (stereo not drawn) [Example 6, N-(3-Pyrrolidin-3-yl-phenyl)-3-trifluoromethoxy-benzenesulfonamide] showed a Ki of 1 to 10 nM.

In turn, `O=S(=O)(Nc1cccc([C@@H]2CCNC2)c1)c1cccc(OC(F)(F)F)c1` [Example 7, N—((S)-3-Pyrrolidin-3-yl-phenyl)-3-trifluoromethoxy-benzene sulfonamide] showed a Ki of 1 to 10 nM.
